Test results reported in US10681909B2, “Herbicidal triazoles” (FMC Corporation, priority 2014, dated 2020).

What was measured:
lambsquarters = assay: Test C postemergence; type: in vivo, Chenopodium album
Summary of the method: (§1)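 Preemergence: seeds sown in loam soil–sand blend and treated with test chemicals formulated in a non-phytotoxic solvent mixture containing a surfactant. Postemergence: plants grown in peat moss/vermiculite-based medium and sprayed with the same formulation at 2 to 18 cm height (1- to 4-leaf stage).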

oilseed rape = assay: Test C postemergence; type: in vivo, Brassica napus
Summary of the method: as §1

pigweed [1] = assay: Test C postemergence; type: in vivo, Amaranthus retroflexus
Summary of the method: as §1

kochia = assay: Test C postemergence; type: in vivo, Kochia scoparia
Summary of the method: as §1

foxtail, giant [2] = assay: Test C postemergence; type: in vivo, Setaria faberii
Summary of the method: as §1

johnsongrass = assay: Test C postemergence; type: in vivo, Sorghum halepense
Summary of the method: as §1

blackgrass = assay: Test C postemergence; type: in vivo, Alopecurus myosuroides
Summary of the method: as §1

waterhemp = assay: Test C postemergence; type: in vivo, Amaranthus rudis
Summary of the method: as §1

barnyardgrass [3] = assay: Test A preemergence; type: in vivo, Echinochloa crus-galli; conditions: 0 to 100 scale (0 no effect, 100 complete control)
Summary of the method: (§2)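 Test chemicals, formulated in a surfactant-containing non-phytotoxic solvent mixture, are applied either as a directed soil spray to newly planted seeds or as a postemergence application to plants at the one- to two-leaf stage (2–10 cm). All plants grow in a loam soil and sand blend.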

velvetleaf = assay: Test C postemergence; type: in vivo, Abutilon theophrasti
Summary of the method: as §1

barnyardgrass [4] = assay: Test B flooded paddy test; type: in vivo, Echinochloa crus-galli; conditions: 250 g ai/ha, applied to paddy water at 2-leaf stage, visual rating after 13 to 15 d, scale 0 (no effect) to 100 (complete control)
Summary of the method: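 Pots were flooded to 3 cm above the soil at treatment, and compounds were applied directly into the paddy water. That depth was held throughout. After 13 to 15 d in a greenhouse, plants were rated visually against untreated controls.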

barnyardgrass [5] = assay: Test C postemergence; type: in vivo, Echinochloa crus-galli
Summary of the method: as §1

pigweed [6] = assay: Test A postemergence; type: in vivo, Amaranthus retroflexus; conditions: 0 to 100 scale (0 no effect, 100 complete control), approx. 10 d
Summary of the method: as §2

crabgrass, large = assay: Test C postemergence; type: in vivo, Digitaria sanguinalis
Summary of the method: as §1

galium = assay: Test C postemergence; type: in vivo, Galium aparine
Summary of the method: as §1

wheat = assay: Test A postemergence; type: in vivo, Triticum aestivum; conditions: 0 to 100 scale (0 no effect, 100 complete control), approx. 10 d
Summary of the method: as §2

foxtail, giant [7] = assay: Test A postemergence; type: in vivo, Setaria faberii; conditions: 0 to 100 scale (0 no effect, 100 complete control), approx. 10 d
Summary of the method: as §2

ragweed = assay: Test C postemergence; type: in vivo, Ambrosia elatior
Summary of the method: as §1

corn = assay: Test C postemergence; type: in vivo, Zea mays
Summary of the method: as §1

## FC(F)(F)COc1nc(-c2ccc(Cl)cc2)nn1Cc1ccnc(C(F)(F)F)c1 [Compound 31]
lambsquarters; 31 g ai/ha
  Plant response rating (scale of 0 to 100 where 0 is no effect and 100 is complete control): 98
lambsquarters; 62 g ai/ha
  Plant response rating (scale of 0 to 100 where 0 is no effect and 100 is complete control): 100
lambsquarters; 125 g ai/ha
  Plant response rating (scale of 0 to 100 where 0 is no effect and 100 is complete control): 100
lambsquarters; 250 g ai/ha
  Plant response rating (scale of 0 to 100 where 0 is no effect and 100 is complete control): 100
Oilseed rape; Oilsee Rape, 250 g ai/ha
  Plant response rating (scale of 0 to 100 where 0 is no effect and 100 is complete control): 90
Oilseed rape; Oilseed Rape, 31 g ai/ha
  Plant response rating (scale of 0 to 100 where 0 is no effect and 100 is complete control): 85
Oilseed rape; Oilseed Rape, 62 g ai/ha
  Plant response rating (scale of 0 to 100 where 0 is no effect and 100 is complete control): 90
Oilseed rape; Oilseed Rape, 125 g ai/ha
  Plant response rating (scale of 0 to 100 where 0 is no effect and 100 is complete control): 85
Pigweed [1]; 31 g ai/ha
  Plant response rating (scale of 0 to 100 where 0 is no effect and 100 is complete control): 95
Pigweed [1]; 62 g ai/ha
  Plant response rating (scale of 0 to 100 where 0 is no effect and 100 is complete control): 98
Pigweed [1]; 125 g ai/ha
  Plant response rating (scale of 0 to 100 where 0 is no effect and 100 is complete control): 100
Pigweed [1]; 250 g ai/ha
  Plant response rating (scale of 0 to 100 where 0 is no effect and 100 is complete control): 98
kochia; 31 g ai/ha
  Plant response rating (scale of 0 to 100 where 0 is no effect and 100 is complete control): 90
kochia; 62 g ai/ha
  Plant response rating (scale of 0 to 100 where 0 is no effect and 100 is complete control): 90
kochia; 125 g ai/ha
  Plant response rating (scale of 0 to 100 where 0 is no effect and 100 is complete control): 90
kochia; 250 g ai/ha
  Plant response rating (scale of 0 to 100 where 0 is no effect and 100 is complete control): 90
foxtail, giant [2]; 31 g ai/ha
  Plant response rating (scale of 0 to 100 where 0 is no effect and 100 is complete control): 15
foxtail, giant [2]; 62 g ai/ha
  Plant response rating (scale of 0 to 100 where 0 is no effect and 100 is complete control): 35
foxtail, giant [2]; 125 g ai/ha
  Plant response rating (scale of 0 to 100 where 0 is no effect and 100 is complete control): 40
foxtail, giant [2]; 250 g ai/ha
  Plant response rating (scale of 0 to 100 where 0 is no effect and 100 is complete control): 40
johnsongrass; 31 g ai/ha
  Plant response rating (scale of 0 to 100 where 0 is no effect and 100 is complete control): 35
johnsongrass; 62 g ai/ha
  Plant response rating (scale of 0 to 100 where 0 is no effect and 100 is complete control): 25
johnsongrass; 125 g ai/ha
  Plant response rating (scale of 0 to 100 where 0 is no effect and 100 is complete control): 40
johnsongrass; 250 g ai/ha
  Plant response rating (scale of 0 to 100 where 0 is no effect and 100 is complete control): 70
blackgrass; 31 g ai/ha
  Plant response rating (scale of 0 to 100 where 0 is no effect and 100 is complete control): 35
blackgrass; 62 g ai/ha
  Plant response rating (scale of 0 to 100 where 0 is no effect and 100 is complete control): 50
blackgrass; 125 g ai/ha
  Plant response rating (scale of 0 to 100 where 0 is no effect and 100 is complete control): 60
blackgrass; 250 g ai/ha
  Plant response rating (scale of 0 to 100 where 0 is no effect and 100 is complete control): 80
waterhemp; 31 g ai/ha
  Plant response rating (scale of 0 to 100 where 0 is no effect and 100 is complete control): 95
waterhemp; 62 g ai/ha
  Plant response rating (scale of 0 to 100 where 0 is no effect and 100 is complete control): 98
waterhemp; 125 g ai/ha
  Plant response rating (scale of 0 to 100 where 0 is no effect and 100 is complete control): 100
waterhemp; 250 g ai/ha
  Plant response rating (scale of 0 to 100 where 0 is no effect and 100 is complete control): 98
Barnyardgrass [3]; 125 g ai/ha
  Plant response rating, Barnyardgrass: 90
Barnyardgrass [3]; 500 g ai/ha, approx. 10 d
  Plant response rating, Barnyardgrass: 90
velvetleaf; 31 g ai/ha
  Plant response rating (scale of 0 to 100 where 0 is no effect and 100 is complete control): 45
velvetleaf; 62 g ai/ha
  Plant response rating (scale of 0 to 100 where 0 is no effect and 100 is complete control): 65
velvetleaf; 125 g ai/ha
  Plant response rating (scale of 0 to 100 where 0 is no effect and 100 is complete control): 65
velvetleaf; 250 g ai/ha
  Plant response rating (scale of 0 to 100 where 0 is no effect and 100 is complete control): 75
Barnyardgrass [4]
  Plant response rating, Barnyardgrass, Flood: 40
Barnyardgrass [5]; 31 g ai/ha
  Plant response rating (scale of 0 to 100 where 0 is no effect and 100 is complete control): 35
Barnyardgrass [5]; 62 g ai/ha
  Plant response rating (scale of 0 to 100 where 0 is no effect and 100 is complete control): 35
Barnyardgrass [5]; 125 g ai/ha
  Plant response rating (scale of 0 to 100 where 0 is no effect and 100 is complete control): 45
Barnyardgrass [5]; 250 g ai/ha
  Plant response rating (scale of 0 to 100 where 0 is no effect and 100 is complete control): 75
Pigweed [6]; 125 g ai/ha
  Plant response rating, Pigweed: 100
Pigweed [6]; 500 g ai/ha
  Plant response rating, Pigweed: 100
crabgrass, large; 31 g ai/ha
  Plant response rating (scale of 0 to 100 where 0 is no effect and 100 is complete control): 20
crabgrass, large; 62 g ai/ha
  Plant response rating (scale of 0 to 100 where 0 is no effect and 100 is complete control): 35
crabgrass, large; 125 g ai/ha
  Plant response rating (scale of 0 to 100 where 0 is no effect and 100 is complete control): 60
crabgrass, large; 250 g ai/ha
  Plant response rating (scale of 0 to 100 where 0 is no effect and 100 is complete control): 80
galium; 31 g ai/ha
  Plant response rating (scale of 0 to 100 where 0 is no effect and 100 is complete control): 80
galium; 62 g ai/ha
  Plant response rating (scale of 0 to 100 where 0 is no effect and 100 is complete control): 80
galium; 125 g ai/ha
  Plant response rating (scale of 0 to 100 where 0 is no effect and 100 is complete control): 80
galium; 250 g ai/ha
  Plant response rating (scale of 0 to 100 where 0 is no effect and 100 is complete control): 80
wheat; 125 g ai/ha
  Plant response rating, Wheat: 30
wheat; 500 g ai/ha
  Plant response rating, Wheat: 40
foxtail, giant [7]; 125 g ai/ha
  Plant response rating, Foxtail, Giant: 80
foxtail, giant [7]; 500 g ai/ha
  Plant response rating, Foxtail, Giant: 90
ragweed; 31 g ai/ha
  Plant response rating (scale of 0 to 100 where 0 is no effect and 100 is complete control): 70
ragweed; 62 g ai/ha
  Plant response rating (scale of 0 to 100 where 0 is no effect and 100 is complete control): 75
ragweed; 125 g ai/ha
  Plant response rating (scale of 0 to 100 where 0 is no effect and 100 is complete control): 85
ragweed; 250 g ai/ha
  Plant response rating (scale of 0 to 100 where 0 is no effect and 100 is complete control): 100
corn; 31 g ai/ha
  Plant response rating (scale of 0 to 100 where 0 is no effect and 100 is complete control): 40
corn; 62 g ai/ha
  Plant response rating (scale of 0 to 100 where 0 is no effect and 100 is complete control): 20
corn; 125 g ai/ha
  Plant response rating (scale of 0 to 100 where 0 is no effect and 100 is complete control): 20
corn; 250 g ai/ha
  Plant response rating (scale of 0 to 100 where 0 is no effect and 100 is complete control): 30
